# Experimental data reported in patent US10988465B2, “CXCR4 inhibitors and uses thereof” (X4 Pharmaceuticals, Inc., priority 2016, dated 2021).
# Read-outs that look alike come from different tables or passages of the source.
# Legend:
# [1] = biological target: T1, CXCR-4 transfected U87 cell line (U87.CXCR4) (Homo sapiens, UniProt P61073); experiment: Intracellular CXCL-12-induced calcium mobilization assay (FLIPR); type: cell-based; conditions: U87.CXCR4 cells; CXCL-12 25-50 ng/mL; compound added 15 min before; read-out: IC50 CXCL-12 Ca^2+ flux U87.CXCR4+
# T1 construct: expressed in transfected cells; host or cells: U87 (U87.CXCR4)
# T1 sequence (P61073 whole entry): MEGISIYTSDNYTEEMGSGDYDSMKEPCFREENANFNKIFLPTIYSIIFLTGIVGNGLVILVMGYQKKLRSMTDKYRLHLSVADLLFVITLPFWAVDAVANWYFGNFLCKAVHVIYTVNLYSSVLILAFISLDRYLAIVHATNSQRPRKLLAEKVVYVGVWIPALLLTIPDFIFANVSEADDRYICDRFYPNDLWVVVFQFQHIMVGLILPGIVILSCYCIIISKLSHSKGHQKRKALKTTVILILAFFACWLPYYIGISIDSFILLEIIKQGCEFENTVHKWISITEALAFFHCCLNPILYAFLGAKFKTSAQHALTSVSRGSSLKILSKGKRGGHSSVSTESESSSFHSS
# How it was run: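 U87 cells stably expressing human CXCR4, loaded with Fluo-2 AM (4 μM final) for 45 min at 37 °C in HBSS/20 mM HEPES/0.2% BSA, pH 7.4. Calcium flux triggered by CXCL-12 (25-50 ng/mL) was followed by FLIPR fluorescence over time at 37 °C.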
# [2] = biological target: T2, Jurkat cells expressing CXCR4 (Homo sapiens, UniProt P61073); experiment: Chemokine (CXCL12-AF647) binding inhibition assay; conditions: CXCL12-AF647 25 ng/mL, read-out: IC50 CXCL-12 binding Jurkat
# T2 construct: endogenous in cells; host or cells: Jurkat
# T2 sequence (P61073 whole entry): as above
# How it was run: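 Cells in HBSS, 20 mM HEPES, 0.2% BSA, pH 7.4, preincubated 15 min at room temperature with compound, then 25 ng/mL CXCL12-AF647 for 30 min. After washing and paraformaldehyde fixation, bound ligand read by flow cytometry; percent inhibition calculated from MFI relative to unlabeled and ligand-only controls.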
# [3] = in vitro; conditions: human, Caco-2, pH 7.4
# How it was run: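 Caco-2 monolayers, checked by TEER with Lucifer yellow as marker, were dosed with 10 μM compound in HBSS pH 7.4 in A-to-B and B-to-A directions. Incubation was 90 min at 37° C, in duplicate. Samples were quantified by LC-MS/MS and Papp calculated.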
# [4] = Mouse brain uptake assay (MBUA), 3 mg/kg IV, 0-1 h, 3 time points; type: in vivo, male CD1 mice; conditions: for Kp / clearance / half-life / AUC(0-t) / Kp uu: male; for Kp: CD1, mouse, brain/plasma, iv, 3 mg/kg; for clearance / half-life: CD1, plasma, 3 time points; for clearance / half-life / AUC(0-t) / Kp uu / fraction unbound: mouse; for clearance / half-life / AUC(0-t) / Kp uu: 3 mg/kg IV, 0-1 h; for half-life: read-out: t½ (converted); for AUC(0-t) / Kp uu: CD1; for Kp uu: unbound brain/unbound plasma
# Procedure: Example 38: Pharmacokinetics and Brain Penetration Experiment to Determine Brain and Plasma Concentrations of Compounds after IV Administration to Male CD1 Mice
# The study design (9 animals) consisted of administrating the drug (IV: 3 mg/kg (5 mL/kg) via tail vein injection) and collecting samples at terminal bleeding for plasma and brain at 0.083, 0.5 and 1 h. The IV dosing solution was prepared in 50 mM citrate buffer (pH 4.0) at 0.6 mg/mL. The blood collection was performed as follows: the animal was restrained manually and approximately 150 μL blood/time point was collected into a dipotassium EDTA tube via retro orbital puncture under anesthesia with isoflurane. The blood sample was put on ice and centrifuged to obtain a plasma sample (2000 g, 5 min under 4° C.) within 15 minutes. The brain collection was performed as follows: a mid-line incision was made in the animal's scalp and the skin was retracted. Using small bone cutters and rongeurs, the skull overlying the brain was removed. The brain was removed using a spatula and the brain rinsed with cold saline. The brain was placed in screw-top tubes, and the tubes were stored at −70° C. until analysis.
# An aliquot of 30 μL sample was added to 150 μL MeCN containing 50 ng/mL IS (Dexamethasone). The mixture was vortexed for 5 min and centrifuged at 14,000 rpm for 5 min. An aliquot of 5 μL supernatant was injected for LC-MS/MS analysis.
# An aliquot of 30 μL brain homogenate (brain:PBS=1:3, w/v) sample was added to 150 μL IS in MeCN (Dexamethasone, 50 ng/mL). The mixture was vortexed for 5 min and centrifuged at 14,000 rpm for 5 min. An aliquot of 5 μL supernatant was injected for LC-MS/MS analysis.
# The sample analysis was performed on LCMS/MS-003 (API4000, triple quadruple) under the following conditions: positive ion, ESI, MRM detection using dexamethasone as internal standard. HPLC conditions: mobile phase A: H2O (0.025% formic acid (FA) with 1 mM NH4OAc); mobile phase B: MeOH (0.025% FA with 1 mM NH4OAc) on Waters X-Bridge C18 (2.1×50 mm, 2.5 μm) column at 60° C.
# [5] = fraction unbound to brain proteins, read-out: Fu (b) %
# [6] = fraction unbound to plasma proteins, read-out: Fu (p) %
IC50 [1] [nM],IC50 [2] [nM],"Papp A→B at 90 min, 10 μM [3] [×10⁻⁶ cm/s]","Papp B→A at 90 min, 10 μM [3] [×10⁻⁶ cm/s]","efflux ratio at 90 min, 10 μM [3]",Kp [4],clearance [4] [mL/min/kg],half-life [4] [min],"AUC(0-t) ([4]; brain, read-out: AUClast (b)) [ng·h/mL]","AUC(0-t) ([4]; plasma, read-out: AUClast (P)) [ng·h/mL]",Kp uu [4],"fraction unbound [4, 5]","fraction unbound [4, 6]","Kp uu ([4]; read-out: Kp, uu)",Structure (SMILES)
0.01 to 100,0.01 to 100,0.1 to 10,0.1 to 10,0.1 to 10,0.41,375,18.1,49.7,120,0,0.002,0.189,,"Cc1cccnc1[C@@H]1CCC[C@H](c2nc3ccccc3n2CC2CCN(C(C)C)CC2)N1C [I-23, 1-((1-isopropylpiperidin-4-yl)methyl)-2-((2R,6S)-1-methyl-6-(3-methylpyridin-2-yl)piperidin-2-yl)-1H-benzo[d]imidazole]"
0.01 to 100,0.01 to 100,0.1 to 10,10 to 30,0.1 to 10,0.35,101,38.2,112,316,,0.018,0.163,0.04,Cc1cccnc1[C@@H]1CCC[C@H](c2nc3cccc(N4CCN(C)CC4)c3[nH]2)N1 [I-83]
0.01 to 100,0.01 to 100,0.1 to 10,10 to 30,0.1 to 10,0.31,132,23.2,99.7,313,,0.048,0.215,0.07,COc1cccnc1[C@@H]1CCC[C@H](c2nc3cccc(N4CCN(C)CC4)c3[nH]2)N1 [I-127]
0.01 to 100,0.01 to 100,10 to 30,10 to 30,0.1 to 10,1.66,19.7,185,539,323,,0.01,0.031,0.54,Cc1cccnc1[C@@H]1CCC[C@H](c2nc3cccc(N4CCN(C)C5(CC5)C4)c3[nH]2)N1 [I-132]
